Read-outs that look alike come from different tables or passages of the source.
How the values were obtained:
[1] = test system: Mammary Adenocarcinoma 16/C; experiment: Exp 2877A: evaluation against early stage Mammary Adenocarcinoma 16/C implanted SC in C3H female mice; format: in vivo
Description: In Experiment #2877A the following general methodologies were employed:
Tumor and Animal Maintenance
Mammary adenocarcinoma-16/C were used in the studies. […] The mice were supplied food and water ad libitum.
Chemotherapy of Solid Tumors
Animals were pooled, implanted subcutaneously with 30 to 60 mg tumor fragments by a 12 gauge trocar on day 0, and again pooled before unselective distribution to the various treatment and control groups. For early stage treatment, chemotherapy was started within 1 to 3 days after tumor implantation while the number of cells was relatively small (10^7 to 10^8 cells). Tumors were measured with a caliper twice weekly. Mice were sacrificed when their tumors reached 1500 mg. Tumor weights are estimated from two-dimensional measurements:
Tumor weight (in mg)=(a×b^2)/2, where a and b are the tumor length and width in (mm), respectively.
End Points for Assessing Antitumor Activity for Solid Tumors
The following quantitative endpoints were used to assess antitumor activity: • a) Tumor growth delay (T−C value), where T is the median time (in days) required for the treatment group tumors to reach a predetermined size (e.g., 1000 mg), and C is the median time (in days) for the control group tumors to reach the same size. Tumor-free survivors are excluded from these calculations (cures are tabulated separately). This value is an important criterion of antitumor effectiveness because it allows the quantification of tumor cell kill. • b) Calculation of tumor cell kill For subcutaneously (SC) growing tumors, the log10 cell kill was calculated from the following formula:
[formula] where T−C is the tumor growth delay as described above and Td is the tumor volume doubling time (in days), estimated from the best fit straight line from a log-linear growth plot of the control group tumors in exponential growth (100 to 800 mg range). The conversion of the T−C values to log10 cell kill is possible because the Td of tumors regrowing post treatment (Rx) approximates the Td values of the tumors in untreated control mice.
The issue of conversion of tumor growth delay (T−C value) to log tumor cell kill is justified in this series because of the large number of cures obtained with 5 of the agents in this XK469 series that have been previously studied and patented. Cures are a clear indication of tumor cell kill (rather than stasis of tumor cell replication).
In selected cases, both for historic in vivo evaluation data as well as data presented here, it is of value to compare log kill numbers from trials of markedly different testing schedules. For this purpose, an activity table was created, and is presented below. It should be noted that an activity rating of +++ to ++++ is needed to effect partial regression (PR) or complete regression (CR) of 100 to 300 mg size masses of most transplanted solid tumors of mice. Thus, an activity rating of + or ++ would not be scored as active by usual clinical criteria. A PR is a reduction in tumor mass to less than 50% of pretreatment size. A CR is a reduction in tumor mass to below palpable size (i.e., reduction to zero detectable mass).

[2] = Description: Mammary adenocarcinoma-16/C were used in the studies. Tumors were maintained in the mouse strain of origin C3H (for the mammary tumors). Individual mouse body weights for each experiment were within 5 grams, and all mice were over 17 grams at the start of therapy. The mice were supplied food and water ad libitum.
The treatment and control groups were measured when the control group tumors reach approximately 700 to 1200 mg in size (median of group). The T/C value in percent is an indication of antitumor effectiveness: A T/C=0% means no tumor growth. […] A T/C equal to or less than 42% is considered significant antitumor activity by the Drug Evaluation Branch of the Division of Cancer Treatment (NCI). A T/C value <10% is considered to indicate highly significant antitumor activity, and is the level used by NCI to justify a clinical trial if toxicity, formulation, and certain other requirements are met (termed DN-2 level activity).

[3] = test system: transplantable mouse tumors; details: cited from earlier work
[4] = Cg 4, IV Q2dx7, 54 mg/kg, total 378 mg/kg
[5] = Cg 5, IV Q2dx7, 34 mg/kg, total 238 mg/kg
[6] = Cg 6, IV Q2dx7, 48-60 mg/kg, total 372 mg/kg
[7] = Cg 7, IV Q2dx7, 30-38 mg/kg, total 234 mg/kg
[8] = Cg 8, IV Qd1,3,5,7-13, 57-125 mg/kg, total 822 mg/kg
[9] = Cg 9, IV Qd1,3,5,7-13, 36-75 mg/kg, total 513 mg/kg

COc1c(Br)ccc2ccc(Oc3ccc(OC(C)C(=O)O)cc3)nc12 (stereo not drawn) [SH135R, 2-(4-(7-Bromo-8-methoxyquinolin-2-yloxy)phenoxy)propanoic acid]
Activity rating (Comments) [1, 4]: (++++) (Highly active ++++ >2.8) | Log Cell Kill Gross [1, 4]: 5.0 | Log Cell Kill Net [1, 4]: 1.4 | Median Tumor Burden in mg on d10 [1, 4]: 0 mg | T-C [1, 4]: 16.5 days | T/C % [1, 4]: 0% | Time to 1000 mg [1, 4]: 25.5 days | Tumor Free on d43 [1, 4]: 0/5 | Activity rating (Comments) [1, 5]: (++++) (Highly active ++++ >2.8) | Log Cell Kill Gross [1, 5]: 4.2 | Log Cell Kill Net [1, 5]: 0.6 | Median Tumor Burden in mg on d10 [1, 5]: 63 mg | T-C [1, 5]: 14 days | T/C % [1, 5]: 5.5% | Time to 1000 mg [1, 5]: 23 days | Tumor Free on d43 [1, 5]: 0/4 | T/C % ([1]; Cg 5, IV Q2dx7, 34 mg/kg, total 238 mg/kg, listed as SH 135(R)): 0%

COc1c(Cl)ccc2ccc(Oc3ccc(OC(C)C(=O)O)cc3)nc12 (stereo not drawn) [SH140R, 2-(4-(7-Chloro-8-methoxyquinolin-2-yloxy)phenoxy)propanoic acid]
Activity rating (Comments) [1, 6]: (++++) (Highly active ++++ >2.8) | Log Cell Kill Gross [1, 6]: 4.8 | Log Cell Kill Net [1, 6]: 1.2 | Median Tumor Burden in mg on d10 [1, 6]: 0 mg | T-C [1, 6]: 16 days | T/C % [1, 6]: 0% | Time to 1000 mg [1, 6]: 25 days | Tumor Free on d43 [1, 6]: 0/5 | Activity rating (Comments) [1, 7]: (++++) (Highly active ++++ >2.8) | Log Cell Kill Gross [1, 7]: 3.6 | Log Cell Kill Net [1, 7]: 0 | Median Tumor Burden in mg on d10 [1, 7]: 63 mg | T-C [1, 7]: 12 days | T/C % [1, 7]: 5.5% | Time to 1000 mg [1, 7]: 21 days | Tumor Free on d43 [1, 7]: 0/5 | Drug Death (day of death) [2, 6]: 0/5 | Drug Death (day of death) [2, 7]: 0/5

COc1c(F)ccc2ccc(Oc3ccc(OC(C)C(=O)O)cc3)nc12 (stereo not drawn) [SH144R, 2-(4-(7-Fluoro-8-methoxyquinolin-2-yloxy)phenoxy)propanoic acid]
Activity rating (Comments) [1, 8]: (++++) (Highly active ++++ >2.8) | Log Cell Kill Gross [1, 8]: 4.1 | Log Cell Kill Net [1, 8]: 0.5 | Median Tumor Burden in mg on d10 [1, 8]: 0 mg | T-C [1, 8]: 13.5 days | T/C % [1, 8]: 0% | Time to 1000 mg [1, 8]: 22.5 days | Tumor Free on d43 [1, 8]: 0/4 | Activity rating (Comments) [1, 9]: (+++) (2.0-2.8) | Log Cell Kill Gross [1, 9]: 2.1 | Log Cell Kill Net [1, 9]: −1.5 | Median Tumor Burden in mg on d10 [1, 9]: 320 mg | T-C [1, 9]: 7 days | T/C % [1, 9]: 28% | Time to 1000 mg [1, 9]: 16 days | Tumor Free on d43 [1, 9]: 0/5 | Drug Death (day of death) [2, 8]: 0/4 | Drug Death (day of death) ([2]; Cg 8, IV Qd1,3,5,7-13, 57-125 mg/kg, total 822 mg/kg, listed as SH 144(R)): no drug deaths | Drug Death (day of death) [2, 9]: 0/5

CC(Oc1ccc(Oc2cnc3ccc(Cl)cc3n2)cc1)C(=O)[O-].[Na+] (stereo not drawn) [XK469]
activity against transplantable mouse tumors ([3]; Corbett et al., Investigational New Drugs 16, 129-139 (1998)): broad activity | undesirable side effects ([3]; reported, in vivo): in vivo toxicity, e.g., paralytic ileus, GI-epithelial damage, marrow toxicity, neuromuscular toxicity and weight loss | potency ([3]; reported): relatively low potency

Source: US8183379B2, “Antitumor agents” (Wayne State University, priority 2005, dated 2012)
